US8597920B2, “Class of Chloroflexi-like thermophilic cellulose degrading bacteria” (priority 2008, dated 2013)

How the values were obtained:
Chloroflexus isolate T81 [1] = test: Growth on sole energy sources (metabolism experiments); format: cell-based, thermophilic Chloroflexi-like bacteria; conditions: AOM1 (pH 6.5) and FS3V (pH 4.5)
Protocol: (§1) Mineral salts medium FS3V, FeEDTA, Trace elements solution and AOM1 medium were prepared as for Example 1. Energy sources were added to both media prior to autoclaving (0.5 g/L), except where noted, via syringe filter.
(§2) Unless otherwise stated, the following growth conditions were used for all experiments; Chloroflexus strains were grown aerobically at 60° C. in capped 100 mL serum bottles containing 50 mL of medium and 50 mL air headspace. No CO2 was amended to the headspace. Medium was sterilised via autoclaving (121° C., 20 min). Fifty μL of culture was inoculated into 50 mL of sterile medium. Stock Chloroflexus strains were maintained in liquid culture on mannose and on carboxymethylcellulose (CMC), and on phytagel-based solid medium.
(§3) Growth experiments to determine growth using different energy sources were conducted using the basal media, AOM1 or FS3V. No yeast extract (YE) or vitamins were added as growth supplements to either medium in these series of experiments. […] Both the YE and vitamin mix were also tested as sole energy sources.
(§4) Sole energy sources were added at a concentration of (0.5 g/L). […] Yeast extract (Becton Dickinson, 211929), sodium pyruvate (Sigma, P2256), sodium citrate (Ajax Finechem, A467,) and sodium acetate (Sigma, S2881), were also tested as sole energy sources, along with the alcohols methanol (Merck, 1.06018), ethanol (Merck, 1.00983), 1-propanol (Merck, 1.01024), 2-propanol (Merck, 1.01040), pentanol (Sigma, 138975) and butanol (Sigma, 1.01988). A vitamin mix was tested as a sole energy source. The vitamin mixture contained (in 100 mg): 0.8 mg folic acid; 8 mg vitamin B1; 4 mg vitamin B2; 1 mg niacin; 10 mg niacinamide; 15 mg pantothenate; 15 mg pyridoxine; 5 mg cobalamin; 5 mg biotin; 15 mg choline; 15 mg inositol; 7 mg para-amino benzoic acid and was tested at 10 and 100 mg/L.
(§5) Experiments were inoculated using stock cultures of T81, T12 and T26 grown in a corresponding medium with a corresponding energy source type. For example, inoculum for testing growth on a cellulose-based compound was grown in the corresponding medium with a cellulose-based compound as an energy source. All energy sources were added at a concentration of 0.5 g/L prior to autoclave sterilisation, except for D-N-acetylglucosamine, D-(−)-fructose, sodium acetate, sodium citrate, sodium pyruvate, methanol, ethanol, 1-propanol, 2-propanol, pentanol and butanol which were added via filter sterilisation (0.22 μm pore size membrane syringe filter). Tests were conducted in triplicate with a sterile control.

Chloroflexus isolate T12 [2] = test: as above; format: cell-based, thermophilic Chloroflexi-like bacteria; conditions: for Growth of T12 on alcohol as sole energy source, FS3V: alcohol 0.05% v/v, aerobic, 60° C.
Protocol: as §1, §2, §3, §4, §5

Chloroflexus isolate T26 = test: as above; format: cell-based, thermophilic Chloroflexi-like bacteria; conditions: aerobic, 60° C.; for Growth of T26 on sole energy source, AOM1: AOM1 medium (pH 6.5), energy source 0.5 g/L
Protocol: as §1, §2, §3, §4, §5

Chloroflexus isolate T81 [3] = test: as above; format: cell-based, thermophilic Chloroflexi-like bacteria; conditions: aerobic, 60° C.; for Growth of T81 on sole energy source, FS3V: FS3V medium (pH 4.5), energy source 0.5 g/L; for Growth of T81 on alcohol as sole energy source, FS3V: alcohol 0.05% v/v
Strain T81 = test: Preference for alcohols over saccharides (fructose with ethanol, HPLC); format: cell-based, thermophilic Chloroflexi-like bacteria; conditions: FS3V, 60° C.
Protocol: Unless otherwise stated, sugars and/or alcohols were measured on a Dionex Ultimate 3000® High Performance Liquid Chromatography (HPLC) unit via refractive index (RI) on a Shodex RI-101 unit (Dionex, Utah, USA). The RI unit was run at 35° C. Samples (10 μL) were injected into a degassed water carrier solution running at 0.6 mL/min. Samples were separated on a Varian PL Hi-Plex H (8 μm, 300×7.7 mm) at 60° C. (Varian, Massachusetts, USA). Chromatographs were interpreted using Chromeleon® software (Dionex, Utah, USA). Strain […] was also tested for it's preference for alcohols over saccharides. […] Strain […] was inoculated and incubated statically at 60° C. One milliliter samples were taken daily and frozen for analysis using HPLC.

[4] = tested on: Chloroflexus strains T81, T26 and T12; test: Growth on energy sources, statements for all three strains together; format: cell-based, thermophilic Chloroflexi-like bacteria
Protocol: Growth experiments to determine growth using different energy sources were conducted using the basal media, AOM1 or FS3V. No yeast extract (YE) or vitamins were added as growth supplements to either medium in these series of experiments. Preliminary experiments have shown that they are not requited. Both the YE and vitamin mix were also tested as sole energy sources. Sole energy sources were added at a concentration of (0.5 g/L). […] A vitamin mix was tested as a sole energy source. The vitamin mixture contained (in 100 mg): 0.8 mg folic acid; 8 mg vitamin B1; 4 mg vitamin B2; 1 mg niacin; 10 mg niacinamide; 15 mg pantothenate; 15 mg pyridoxine; 5 mg cobalamin; 5 mg biotin; 15 mg choline; 15 mg inositol; 7 mg para-amino benzoic acid and was tested at 10 and 100 mg/L. Experiments were inoculated using stock cultures of […], T12 and […] grown in a corresponding medium with a corresponding energy source type. For example, inoculum for testing growth on a cellulose-based compound was grown in the corresponding medium with a cellulose-based compound as an energy source. […] Bacterial growth was determined visually as optical density (OD) measurements are not possible due to growth characteristics of the Chloroflexi isolates. […] Cellulose pulp degradation and sugar generation by Chloroflexus strain […] was assessed. […] Growth on the various pulp tablets was assessed visually.

Chloroflexus isolate T12 [5] = conditions: FS3V, pH 4.5; ethanol as sole energy source
Protocol: All three Chloroflexus strains were tested for their ability to grow on elevated levels of ethanol. Ethanol at concentrations of 0.1%, 1.0%, 2.0%, 5.0%, 7.5%, and 10.0% (v/v) were asceptically added into FS3V medium following sterilisation as the sole energy source. Strains were then inoculated and incubated statically.

OC[C@H]1O[C@H](O[C@H]2O[C@H](CO)[C@@H](O)[C@H](O)[C@H]2O)[C@H](O)[C@@H](O)[C@@H]1O [D-(+)-trehalose]
Growth of T81 on both media (Chloroflexus isolate T81 [1]): grew

OC[C@H]1O[C@@](CO)(O[C@H]2O[C@H](CO)[C@@H](O)[C@H](O)[C@H]2O)[C@@H](O)[C@@H]1O [sucrose]
Growth of T81 on both media (Chloroflexus isolate T81 [1]): grew

O=C[C@@H](O)[C@@H](O)[C@H](O)[C@H](O)CO [D-(+)-mannose]
Growth of Strain T12 in AOM1 medium adjusted to pH 4.5 (Chloroflexus isolate T12 [2]; AOM1 medium adjusted to pH 4.5): able to grow
Growth of T81 on both media (Chloroflexus isolate T81 [1]): grew

C[C@@H]1O[C@@H](O)[C@H](O)[C@H](O)[C@H]1O.O [L-rhammnose monohydrate]
Growth of T26 on sole energy source, AOM1 (Chloroflexus isolate T26; listed as L-rhamnose monohydrate, monohydrate): could grow
Growth of T81 on both media (Chloroflexus isolate T81 [1]): grew

butanol
Growth of T12 on alcohol as sole energy source, FS3V (Chloroflexus isolate T12 [2]): exception

O=C[C@@H](O)[C@H](O)[C@H](O)CO [D-(+)-arabinose]
Growth of T81 on sole energy source, FS3V (Chloroflexus isolate T81 [3]): grew

O=C(CO)[C@@H](O)[C@H](O)[C@H](O)CO [D-(−)-fructose]
Growth of T81 on both media (Chloroflexus isolate T81 [1]): grew
Consumption by T81 in presence of ethanol and fructose (Strain T81; ethanol (0.05% w/v) and fructose (0.05% w/v)): consumed fructose in preference to ethanol

CCCCCO [1-pentanol]
Growth of T12 on alcohol as sole energy source, FS3V (Chloroflexus isolate T12 [2]): exception
Growth of T81 on alcohol as sole energy source, FS3V (Chloroflexus isolate T81 [3]): exception

CCCO [propanol]
Growth of T26 on alcohol as sole energy source, FS3V (Chloroflexus isolate T26; FS3V, alcohol 0.05% v/v): best growth
Growth of T81 on alcohol as sole energy source, FS3V (Chloroflexus isolate T81 [3]): best growth

O=C[C@H](O)[C@@H](O)[C@H](O)[C@H](O)CO [D-glucose]
Growth of T81 on both media (Chloroflexus isolate T81 [1]): grew

O=C[C@H](O)[C@H](O)[C@H](O)CO [D-(−)-ribose]
Growth of T81 on sole energy source, FS3V (Chloroflexus isolate T81 [3]): grew

CC(=O)N[C@H]1C(O)O[C@H](CO)[C@@H](O)[C@@H]1O (stereo partly drawn) [D-N-acetylglucosamine]
Growth of T26 on sole energy source, AOM1 (Chloroflexus isolate T26; listed as D-N-actylglucosamine): could grow

O=C[C@H](O)[C@@H](O)[C@H](O)CO [D-(+)-xylose]
Growth of T81 on both media (Chloroflexus isolate T81 [1]): grew

OC[C@H]1O[C@@H](O[C@H]2[C@H](O)[C@@H](O)[C@H](O)O[C@@H]2CO)[C@H](O)[C@@H](O)[C@@H]1O [D-(+)-cellobiose]
Growth of T26 on sole energy source, AOM1 (Chloroflexus isolate T26): could grow
Growth of T81 on both media (Chloroflexus isolate T81 [1]): grew

O=C[C@H](O)[C@@H](O)[C@@H](O)[C@H](O)C(=O)O [galacturonic acid]
Support of growth / energy for the isolates T81, T26 and T12 ([4]; sole energy sources, AOM1 or FS3V): did not support growth

CCO [ethanol]
Ethanol concentrations Strain T12 was able to grow on, up to (and including) (Chloroflexus isolate T12 [5]): ≤ 5.0 % (v/v)
Ethanol concentrations all strains were able to grow on, up to (and including) ([4]; FS3V, ethanol as sole energy source): ≤ 2.0 % (v/v)
Effect of ethanol on growth of strain T81 (Strain T81; 5% (w/v) ethanol and 0.05% (w/v) fructose): inhibited the growth

OC[C@H]1O[C@H](O[C@H]2[C@H](O)[C@@H](O)[C@H](O)O[C@@H]2CO)[C@H](O)[C@@H](O)[C@@H]1O [D-(+)-maltose]
Growth of T81 on both media (Chloroflexus isolate T81 [1]): grew

OC[C@H]1O[C@H](OC[C@H]2O[C@H](O[C@]3(CO)O[C@H](CO)[C@@H](O)[C@@H]3O)[C@H](O)[C@@H](O)[C@@H]2O)[C@H](O)[C@@H](O)[C@H]1O [raffinose]
Growth of T81 on both media (Chloroflexus isolate T81 [1]): grew

O=C[C@H](O)[C@@H](O)[C@@H](O)[C@H](O)CO [D-(+)-galactose]
Growth of T81 on both media (Chloroflexus isolate T81 [1]): grew
